From patent publication US10294262B2, “7-deazapurine nucleosides for therapeutic uses” (Institute of Organic Chemistry and Biochemistry ASCR, V.V.I., priority 2009, dated 2019)
Read-outs that look alike come from different tables or passages of the source.

Legend:
Du145 = experiment: Test A: Cytostatic cell culture assay (CC50), SRB, solid tumor cell lines; format: cell-based; details: Homo sapiens, DU-145, 120 h, read-out: CC50 Prostate Du145
Protocol: (§1) Gemcitabine is obtained from Moravek Biochemicals (Brea, Calif.)
(§2) • 1. […] Fix one plate of each cell line with TCA. […] Discard TCA from the plates by flicking them gently. […] Store the plates at room temperature. These plates represent cell counts on day zero. • 4. […] Add 50 μL of the diluted compounds per well. […] Fix the plates with TCA. […] Discard TCA from the plates by flicking them gently. […] Leave at room temperature for 30 minutes. • 9. Flick the plates gently to discard SRB.

HS578 = experiment: as above; format: cell-based; details: Homo sapiens, Hs578, 120 h, read-out: CC50 Breast HS578
Protocol: as §1, §2

HCT116 = experiment: as above; format: cell-based; details: Homo sapiens, HCT-116, 120 h, read-out: CC50 Colon HCT116
Protocol: as §1, §2

NCI H23 = experiment: as above; format: cell-based; details: Homo sapiens, NCI-H23, 120 h, read-out: CC50 Lung NCI H23
Protocol: as §1, §2

human tumor cell lines = experiment: Tests A and B, all tumor cell lines together; format: cell-based; details: read-out: CC50 Geometric mean all
Protocol: as §2
Plates were incubated for 5 days with tested compounds.

[1] = test system: MT-4 T-lymphoid cell line; experiment: Test B: Cytostatic cell culture assay (CC50), CellTiter Glo, lymphoid tumor cell lines; details: Homo sapiens, MT4, 120 h, read-out: CC50 T-lymphoid MT-4
Protocol: Test B: Cytostatic Cell Culture Assay (CC50) for Lymphoid Tumor Cell Lines
This test is typically performed with cell lines that are derived from hematological tumors and grow in suspension. An example of such cell line is human MT-4 T-lymphoid cell line used for the determination of cytostatic activity of tested compounds. […] Cells were passaged in suspension twice a week and maintained at densities below 500,000 cells/mL. For CC50 determination, cells were seeded into 384-well plates at 2,000 cells/well in 20 μL of culture medium. Compounds were serially diluted in culture medium and added in triplicate to a final assay volume of 40 μL/well. Plates were incubated for 5 days with tested compounds. At the end of incubation, cell viability was determined by addition of 40 μL of CellTiter Glo reagent followed by a luminescence read-out.
Data analysis and CC50 value calculations were done using GraphPad Prism software (GraphPad Software, San Diego, Calif.) by applying nonlinear regression.

BT549 = experiment: Test A: Cytostatic cell culture assay (CC50), SRB, solid tumor cell lines; format: cell-based; details: Homo sapiens, BT-549, 120 h, read-out: CC50 Breast BT549
Protocol: as §1, §2

PC3 = experiment: as above; format: cell-based; details: Homo sapiens, PC-3, 120 h, read-out: CC50 Prostate PC3
Protocol: as §1, §2

A549 = experiment: as above; details: Homo sapiens, A549, 120 h, read-out: CC50 Lung A549
Source text: Test A: Cytostatic Cell Culture Assay (CC50) for Solid Tumor Cell Lines
This assay is based on quantification of cell mass determination by a colorimetric detection of the cell associated proteins. The assay relies on the ability of sulforhodamine B (SRB) to bind to protein components of cells that have been fixed to tissue-culture plates by trichloroacetic acid (TCA). SRB is a bright-pink aminoxanthene dye with two sulfonic groups that bind to basic amino-acid residues under mild acidic conditions, and dissociate under basic conditions. As the binding of SRB is stochiometric, the amount of dye extracted from stained cells is directly proportional to the cell mass.
Cell lines: All cell lines are obtained from ATCC (Manassas, Va.). Cultivation media containing Glutamax, and trypsin are purchased from Invitrogen (Carlsbad, Calif.). Doxorubicin, Tubercidin, Clofarabine, TCA and SRB are from Sigma-Aldrich (St. Louis, Mo.). Gemcitabine is obtained from Moravek Biochemicals (Brea, Calif.)
• 1. Trypsinize the sub-confluent cells, count them, and adjust the cell concentrations according to the cell counts listed in Table 1. • 2. Distribute the cells into the 96-well plates in 150 μL of media. Incubate the plates overnight in humidified CO2 incubator at 37° C. • 3. Fix one plate of each cell line with TCA. Discard the cultivation media from the plates by flicking them gently and add 100 μL cold 10% (vol/vol) TCA to each well. Incubate the plates at 4 degree refrigerator for 1 hour. Discard TCA from the plates by flicking them gently. Rinse plates four times in a washing basin containing tap water. Store the plates at room temperature. These plates represent cell counts on day zero. • 4. Prepare a set of medium solutions containing various concentrations of tested compounds by making 5-fold serial dilutions in 96-well plate. Add 50 μL of the diluted compounds per well. Include controls with untreated cells and cells treated with doxorubicin, tubercidin, clofarabine and/or gemcitabine. • 5. Incubate the plates for 5 days at 37° C. • 6. Fix the plates with TCA. Discard the cultivation media from the plates by flicking them gently and add 100 μL cold 10% (vol/vol) TCA to each well. Incubate the plates at 4 degree refrigerator for 1 hour. Discard TCA from the plates by flicking them gently. Rinse plates four times in a washing basin containing tap water. • 7. Remove excess water by tapping the plates face down, gently on a paper towel. Allow the plates to air-dry at room temperature. • 8. Add 100 μL of 0.057% SRB solution in 1% (vol/vol) acetic acid to each well of the plates fixed with TCA on day zero and five. Leave at room temperature for 30 minutes. • 9. Flick the plates gently to discard SRB. Rinse the plates four times with 1% (vol/vol) Acetic Acid. • 10. Store the plates at 37° incubator to facilitate faster drying. • 11. Once the plates are completely dry, add 200 μL of 10 mM Tris base solution (pH 10.5) to each well. Leave at room temperature for 30 minutes for SRB to solubilize. • 12. Measure the OD at 500 nm in a microplate reader. • 13. Calculate the percentage of cell-growth inhibition using the next formula: % of control cell growth=100×(ODsample−mean ODday0)/(ODneg control−mean ODday0). For CC50 determination, plot a dose-response curves between the compound concentration and percent of growth inhibition. CC50 values can be derived by fitting dose-response curves using sigmoidal dose response equation.

[2] = BT549 breast tumor cells, 5 days, SRB

Row | melting point | SMILES | CC50 (Du145) | CC50 (HS578) | CC50 (HCT116) | CC50 (NCI H23) | CC50 (human tumor cell lines) | CC50 [1] | CC50 (BT549; [2]) | CC50 (PC3) | CC50 (A549) | CC50 (BT549)
1 |  | CSc1ccc(-c2cn([C@@H]3O[C@H](CO)[C@@H](O)[C@H]3O)c3ncnc(N)c23)cc1 [Compound 2c, 4-Amino-5-[4-(methylthio)phenyl]-7-(β-D-ribofuranosyl)-7H-pyrrolo[2,3-d]pyrimidine] | 1870 nM | 1970 nM | 1290 nM | 390 nM | 1520 nM | 4400 nM |  |  |  | 
2 |  | Nc1ncnc2c1c(-c1cccc3ccccc13)cn2[C@@H]1O[C@H](CO)C(O)C1O (stereo partly drawn) [Compound 2d, 4-Amino-5-(naphtalen-1-yl)-7-(β-D-ribofuranosyl)-7H-pyrrolo[2,3-d]pyrimidine] | > 10000 nM | > 10000 nM | > 10000 nM | > 10000 nM | > 10000 nM |  |  |  |  | 
3 |  | Nc1ncnc2c1c(-c1ccc3ccccc3c1)cn2[C@@H]1O[C@H](CO)C(O)C1O (stereo partly drawn) [Compound 2e, 4-Amino-5-(naphtalen-2-yl)-7-(β-D-ribofuranosyl)-7H-pyrrolo[2,3-d]pyrimidine] | 1050 nM | 2160 nM | 5670 nM | 5350 nM | 2880 nM |  |  |  |  | 
4 |  | Nc1ncnc2c1c(-c1ccoc1)cn2[C@@H]1O[C@H](CO)[C@@H](O)[C@H]1O [Compound 2h, 4-Amino-5-(furan-3-yl)-7-(β-D-ribofuranosyl)-7H-pyrrolo[2,3-d]pyrimidine] | 330 nM | 21 nM | 15 nM | 198 nM | 78.1 nM | 170 nM | 28 nM | 418 nM | 34 nM | 
5 |  | Nc1ncnc2c1c(-c1ccsc1)cn2[C@@H]1O[C@H](CO)[C@@H](O)[C@H]1O [Compound 2i, 4-Amino-7-(β-D-ribofuranosyl)-5-(thiophen-3-yl)-7H-pyrrolo[2,3-d]pyrimidine] | 97 nM | 50 nM | 7 nM | 73 nM | 60.7 nM | 124 nM | 28 nM | 1320 nM | 16 nM | 
6 |  | Nc1ncnc2c1c(-c1cc3ccccc3o1)cn2[C@@H]1O[C@H](CO)[C@@H](O)[C@H]1O [Compound 2j, 4-Amino-5-(benzofuran-2-yl)-7-(β-D-ribofuranosyl)-7H-pyrrolo[2,3-d]pyrimidine] |  | 6730 nM | 3740 nM | 5400 nM | 5540 nM | 4800 nM |  | 6290 nM | 7020 nM | > 10000 nM
7 |  | Nc1ncnc2c1c(-c1cc[nH]c1)cn2[C@@H]1O[C@H](CO)[C@@H](O)[C@H]1O [Compound 2l, 4-Amino-5-(1H-pyrrol-3-yl)-7-(β-D-ribofuranosyl)-7H-pyrrolo[2,3-d]pyrimidine] |  | 4.4 nM | 5.9 nM | 33 nM | 11.4 nM | 24 nM | 8 nM | 29 nM | 5.3 nM | 
8 |  | Nc1ncnc2c1c(-c1cn[nH]c1)cn2[C@@H]1O[C@H](CO)[C@@H](O)[C@H]1O [Compound 2m, 4-Amino-5-(1H-pyrazol-4-yl)-7-(β-D-ribofuranosyl)-7H-pyrrolo[2,3-d]pyrimidine] |  | 12 nM | 970 nM | 144 nM | 81.9 nM | 110 nM | 50 nM | 14 nM | 192 nM | 
9 | 135 °C | Nc1ncnc2c1c(-c1cc[nH]n1)cn2[C@@H]1O[C@H](CO)[C@@H](O)[C@H]1O [Compound 2n, 4-Amino-5-(1H-pyrazol-3-yl)-7-(β-D-ribofuranosyl)-7H-pyrrolo[2,3-d]pyrimidine] |  | 8 nM | 18 nM | 35 nM | 17.1 nM | 18 nM |  | 15 nM |  | 
10 |  | C#Cc1cn([C@@H]2O[C@H](CO)[C@@H](O)[C@H]2O)c2ncnc(N)c12 [Compound 2o, 4-Amino-5-ethynyl-7-(β-D-ribofuranosyl)-7H-pyrrolo[2,3-d]pyrimidine] |  | 1 nM | 2 nM | 1 nM | 1.9 nM | 1 nM |  | 11 nM |  | 
11 | 286 to 288 °C | Nc1ncnc2c1c(-c1c[nH]nn1)cn2[C@@H]1O[C@H](CO)[C@@H](O)[C@H]1O [Compound 2p, 4-Amino-7-(β-D-ribofuranosyl)-5-(1H-1,2,3-triazol-4-yl)-7H-pyrrolo[2,3-d]pyrimidine] |  | 3 nM | 4 nM | 4 nM | 5.2 nM | 18 nM |  | 5 nM |  | 
12 |  | Nc1ncnc2c1c(-c1nccs1)cn2[C@@H]1O[C@H](CO)[C@@H](O)[C@H]1O [Compound 2q, 4-Amino-7-(β-D-ribofuranosyl)-5-(thiazol-2-yl)-7H-pyrrolo[2,3-d]pyrimidine] |  | 15 nM | 93 nM | 5 nM | 25.6 nM | 42 nM |  | 42 nM |  | 
13 |  | Nc1ncnc2c1c(-c1c[nH]cn1)cn2[C@@H]1O[C@H](CO)[C@@H](O)[C@H]1O [Compound 2r, 4-Amino-5-(1H-imidazol-4-yl)-7-(β-D-ribofuranosyl)-7H-pyrrolo[2,3-d]pyrimidine] |  | 2 nM | 3 nM | 2 nM | 3.8 nM | 28 nM |  | 2 nM |  | 
14 | 153 to 156 °C | Nc1ncnc2c1c(-c1ncc[nH]1)cn2[C@@H]1O[C@H](CO)[C@@H](O)[C@H]1O [Compound 2s, 4-Amino-5-(1H-imidazol-2-yl)-7-(β-D-ribofuranosyl)-7H-pyrrolo[2,3-d]pyrimidine] |  | 1 nM | 2 nM | 6 nM | 3.8 nM | 49 nM |  | 1 nM |  | 
15 | 129 °C | C[C@@]1(O)[C@H](O)[C@@H](CO)O[C@H]1n1cc(-c2ccccc2)c2c(N)ncnc21 [Compound 7a, 4-Amino-7-(2-C-methyl-β-D-ribofuranosyl)-5-phenyl-7H-pyrrolo[2,3-d]pyrimidine] |  |  |  |  |  |  |  |  |  | 
16 | 127 °C | COc1ccc(-c2cn([C@@H]3O[C@H](CO)[C@@H](O)[C@@]3(C)O)c3ncnc(N)c23)cc1 [Compound 7b, 4-Amino-5-(4-methoxyphenyl)-7-(2-C-methyl-β-D-ribofuranosyl)-7H-pyrrolo[2,3-d]pyrimidine] |  |  |  |  |  |  |  |  |  | 
17 |  | COc1cccc2c1C(=O)c1c(O)c3c(c(O)c1C2=O)C[C@@](O)(C(=O)CO)C[C@@H]3O[C@H]1C[C@H](N)[C@H](O)[C@H](C)O1 [Doxorubicine, reference compound] |  | 6 nM | 11 nM | 5 nM | 10.1 nM |  | 10 nM | 21 nM | 16 nM | 
